In paper PMC11576293, “New series of 4,6-diaryl pyrimidines: facile synthesis and antiproliferative activity as dual EGFR/VEGFR-2 inhibitors” (Frontiers in Chemistry, 2024):

Assays:
Assay in all cases: NCI-60 single-dose screen
Type in all cases: cell-based
ACHN 1 = conditions: Homo sapiens, single dose 10 µM, '-' = no inhibition, read-out: % Growth Inhibition
Procedure: (§1) The National Cancer Institute’s Developmental Therapeutic Program (www.dtp.nci.nih.gov) has tested compounds 9–29 (except compounds 21 and 22) against 60 cancer cell lines from nine types (leukemia, lung, colon, CNS, melanoma, ovarian, renal, prostate, and breast cancer) at a single dose (10 μM) ([El-Sherief et al., 2018]). […] The most sensitive cells included leukemia (SR, K-562, and MOLT-4), lung (NCI-H522, […], and EKVX), breast (MCF-7 and T-47D), colon (HCT-15 and HT-29), and ovarian (NCI/ADR-RES).
(§2) The National Cancer Institute’s Developmental Therapeutic Program (www.dtp.nci.nih.gov) evaluated compounds 9–29 (excluding 21 and 22) against 60 cancer cell lines from nine categories (leukemia, lung, colon, CNS, melanoma, ovarian, renal, prostate, and breast cancer) at a single dose (10 μM) ([El-Sherief et al., 2018]). See Supplementary Material A1 for more details.

EKVX = conditions: Homo sapiens, single dose 10 µM, '-' = no inhibition, read-out: % Growth Inhibition
Procedure: as §1, §2

SN12C = conditions: Homo sapiens, single dose 10 µM, '-' = no inhibition, read-out: % Growth Inhibition
Procedure: as §1, §2

TK-10 = conditions: Homo sapiens, single dose 10 µM, '-' = no inhibition, read-out: % Growth Inhibition
Procedure: as §1, §2

UACC-62 = conditions: Homo sapiens, single dose 10 µM, '-' = no inhibition, read-out: % Growth Inhibition
Procedure: as §1, §2

SK-OV-3 = conditions: Homo sapiens, single dose 10 µM, '-' = no inhibition, read-out: % Growth Inhibition
Procedure: as §1, §2

SK-MEL-2 = conditions: Homo sapiens, single dose 10 µM, '-' = no inhibition, read-out: % Growth Inhibition
Procedure: as §1, §2

OVCAR-5 = conditions: Homo sapiens, single dose 10 µM, '-' = no inhibition, read-out: % Growth Inhibition
Procedure: as §1, §2

RPMI-8226 = conditions: Homo sapiens, single dose 10 µM, '-' = no inhibition, read-out: % Growth Inhibition
Procedure: as §1, §2

HOP-92 = conditions: Homo sapiens, single dose 10 µM, '-' = no inhibition, read-out: % Growth Inhibition
Procedure: as §1, §2

SK-MEL-28 = conditions: Homo sapiens, single dose 10 µM, '-' = no inhibition, read-out: % Growth Inhibition
Procedure: as §1, §2

UACC-257 = conditions: Homo sapiens, single dose 10 µM, '-' = no inhibition, read-out: % Growth Inhibition
Procedure: as §1, §2

KM12 = conditions: Homo sapiens, single dose 10 µM, '-' = no inhibition, read-out: % Growth Inhibition
Procedure: as §1, §2

MCF7 = conditions: Homo sapiens, single dose 10 µM, '-' = no inhibition, read-out: % Growth Inhibition
Procedure: as §1, §2

SNB-19 = conditions: Homo sapiens, single dose 10 µM, '-' = no inhibition, read-out: % Growth Inhibition
Procedure: as §1, §2

M14 = conditions: Homo sapiens, single dose 10 µM, '-' = no inhibition, read-out: % Growth Inhibition
Procedure: as §1, §2

MDA-MB-468 = conditions: Homo sapiens, single dose 10 µM, '-' = no inhibition, read-out: % Growth Inhibition
Procedure: as §1, §2

NCI-H522 = conditions: Homo sapiens, single dose 10 µM, '-' = no inhibition, read-out: % Growth Inhibition
Procedure: as §1, §2

HCT-116 = conditions: Homo sapiens, single dose 10 µM, '-' = no inhibition, read-out: % Growth Inhibition
Procedure: as §1, §2

UO-31 = conditions: Homo sapiens, single dose 10 µM, '-' = no inhibition, read-out: % Growth Inhibition
Procedure: as §1, §2

SK-MEL-5 = conditions: Homo sapiens, single dose 10 µM, '-' = no inhibition, read-out: % Growth Inhibition
Procedure: as §1, §2

HT29 = conditions: Homo sapiens, HT-29, single dose 10 µM, '-' = no inhibition, read-out: % Growth Inhibition
Procedure: as §1, §2

NCI/ADR-RES = conditions: Homo sapiens, single dose 10 µM, '-' = no inhibition, read-out: % Growth Inhibition
Procedure: as §1, §2

SF-539 = conditions: Homo sapiens, single dose 10 µM, '-' = no inhibition, read-out: % Growth Inhibition
Procedure: as §1, §2

BT-549 = conditions: Homo sapiens, single dose 10 µM, '-' = no inhibition, read-out: % Growth Inhibition
Procedure: as §1, §2

CCRF-CEM = conditions: Homo sapiens, single dose 10 µM, '-' = no inhibition, read-out: % Growth Inhibition
Procedure: as §1, §2

U251 = conditions: Homo sapiens, U-251, single dose 10 µM, '-' = no inhibition, read-out: % Growth Inhibition
Procedure: as §1, §2

HOP-62 = conditions: Homo sapiens, single dose 10 µM, '-' = no inhibition, read-out: % Growth Inhibition
Procedure: as §1, §2

RXF 393 = conditions: Homo sapiens, single dose 10 µM, '-' = no inhibition, read-out: % Growth Inhibition
Procedure: as §1, §2

OVCAR-3 = conditions: Homo sapiens, single dose 10 µM, '-' = no inhibition, read-out: % Growth Inhibition
Procedure: as §1, §2

A549/ATCC = conditions: Homo sapiens, single dose 10 µM, '-' = no inhibition, read-out: % Growth Inhibition
Procedure: as §1, §2

SNB-75 = conditions: Homo sapiens, single dose 10 µM, '-' = no inhibition, read-out: % Growth Inhibition
Procedure: as §1, §2

HCT-15 = conditions: Homo sapiens, single dose 10 µM, '-' = no inhibition, read-out: % Growth Inhibition
Procedure: as §1, §2

T-47D = conditions: Homo sapiens, T47D, single dose 10 µM, '-' = no inhibition, read-out: % Growth Inhibition
Procedure: as §1, §2

HS 578T = conditions: Homo sapiens, single dose 10 µM, '-' = no inhibition, read-out: % Growth Inhibition
Procedure: as §1, §2

IGROV1 = conditions: Homo sapiens, IGROV-1, single dose 10 µM, '-' = no inhibition, read-out: % Growth Inhibition
Procedure: as §1, §2

NCI-H460 = conditions: Homo sapiens, single dose 10 µM, '-' = no inhibition, read-out: % Growth Inhibition
Procedure: as §1, §2

SF-268 = conditions: Homo sapiens, single dose 10 µM, '-' = no inhibition, read-out: % Growth Inhibition
Procedure: as §1, §2

786-0 = conditions: Homo sapiens, single dose 10 µM, '-' = no inhibition, read-out: % Growth Inhibition
Procedure: as §1, §2

SW-620 = conditions: Homo sapiens, single dose 10 µM, '-' = no inhibition, read-out: % Growth Inhibition
Procedure: as §1, §2

CAKI-1 = conditions: Homo sapiens, single dose 10 µM, '-' = no inhibition, read-out: % Growth Inhibition
Procedure: as §1, §2

MOLT-4 = conditions: Homo sapiens, single dose 10 µM, '-' = no inhibition, read-out: % Growth Inhibition
Procedure: as §1, §2

HCC-2998 = conditions: Homo sapiens, single dose 10 µM, '-' = no inhibition, read-out: % Growth Inhibition
Procedure: as §1, §2

A498 = conditions: Homo sapiens, single dose 10 µM, '-' = no inhibition, read-out: % Growth Inhibition
Procedure: as §1, §2

MDA-MB-435 = conditions: Homo sapiens, single dose 10 µM, '-' = no inhibition, read-out: % Growth Inhibition
Procedure: as §1, §2

PC-3 = conditions: Homo sapiens, single dose 10 µM, '-' = no inhibition, read-out: % Growth Inhibition
Procedure: as §1, §2

MALME-3M = conditions: Homo sapiens, single dose 10 µM, '-' = no inhibition, read-out: % Growth Inhibition
Procedure: as §1, §2

SF-295 = conditions: Homo sapiens, single dose 10 µM, '-' = no inhibition, read-out: % Growth Inhibition
Procedure: as §1, §2

COc1ccc(-c2cc(-c3ccc(Cl)cc3)nc(SC(C)C)n2)cc1 [Compound 12, 4-(4-Chlorophenyl)-2-(isopropylthio)-6-(4-methoxyphenyl)pyrimidine]
inhibition at 10 µM (ACHN 1): < 0%
inhibition at 10 µM (EKVX): 16.8%
inhibition at 10 µM (SN12C): 19.8%
inhibition at 10 µM (TK-10): < 0%
inhibition at 10 µM (UACC-62): 19.1%
inhibition at 10 µM (SK-OV-3): < 0%
inhibition at 10 µM (SK-MEL-2): 19.5%
inhibition at 10 µM (OVCAR-5): < 0%
inhibition at 10 µM (RPMI-8226): 26.7%
inhibition at 10 µM (HOP-92): < 0%
inhibition at 10 µM (SK-MEL-28): < 0%
inhibition at 10 µM (UACC-257): 4.1%
inhibition at 10 µM (KM12): 9.45%
inhibition at 10 µM (MCF7): 28.8%
inhibition at 10 µM (SNB-19): 1.49%
inhibition at 10 µM (M14): 8.46%
inhibition at 10 µM (MDA-MB-468): 35.1%
inhibition at 10 µM (NCI-H522): 21.6%
inhibition at 10 µM (HCT-116): 19.6%
inhibition at 10 µM (UO-31): 15.7%
inhibition at 10 µM (SK-MEL-5): 17.9%
inhibition at 10 µM (HT29): 29.2%
inhibition at 10 µM (NCI/ADR-RES): 11.2%
inhibition at 10 µM (SF-539): 6.88%
inhibition at 10 µM (BT-549): 2.74%
inhibition at 10 µM (CCRF-CEM): 24.1%
inhibition at 10 µM (U251): 7.59%
inhibition at 10 µM (HOP-62): < 0%
inhibition at 10 µM (RXF 393): 26.4%
inhibition at 10 µM (OVCAR-3): < 0%
inhibition at 10 µM (A549/ATCC): 15.9%
inhibition at 10 µM (SNB-75): < 0%
inhibition at 10 µM (HCT-15): 38.7%
inhibition at 10 µM (T-47D): 40.4%
inhibition at 10 µM (HS 578T): < 0%
inhibition at 10 µM (IGROV1): < 0%
inhibition at 10 µM (NCI-H460): 7.21%
inhibition at 10 µM (SF-268): < 0%
inhibition at 10 µM (786-0): 7.48%
inhibition at 10 µM (SW-620): 5.57%
inhibition at 10 µM (CAKI-1): 14.1%
inhibition at 10 µM (MOLT-4): 29.9%
inhibition at 10 µM (HCC-2998): 1.06%
inhibition at 10 µM (A498): < 0%
inhibition at 10 µM (MDA-MB-435): 8.92%
inhibition at 10 µM (PC-3): 2.88%
inhibition at 10 µM (MALME-3M): 1.51%
inhibition at 10 µM (SF-295): 4.52%
